These results are taken from ChEMBL document CHEMBL3508140 (2016).

A word on the half-life: it is the time in which the quantity being followed falls by half. A low value points to fast loss. Usually Vd stands for the apparent volume that relates the amount in the body to the concentration in plasma or blood.

The nature of data set [1]: Increase in serum triglycerides level following intravenous idarubicin at 0.6 mg.Kg-1 per week in rat. It counts as toxicity, organism-based, SD. The settings on record: in vivo. More on the design: dose 0.6 mg.Kg-1, dosed compound id 2.46809e+06, dosed compound name Idarubicin, dose level Intermediate, gender Mixed, regimen Once per week, route intravenous, sampling time 8-22 Week, study doses 0/0.3/0.6/1 mg.Kg-1.

Data set [2] is described as follows: Increase in serum triglycerides level following intravenous idarubicin at 0.3 mg.Kg-1 per week in rat. The class given is toxicity, organism-based, SD. The arrangement: dose 0.3 mg.Kg-1, dosed compound id 2.46809e+06, dosed compound name Idarubicin, dose level Low, gender Mixed, regimen Once per week, route intravenous, sampling time 8-22 Week, study doses 0/0.3/0.6/1 mg.Kg-1. To be noted: in vivo.

Data set [3] in a line: Mortality occurred following intravenous idarubicin at 0.6 mg.Kg-1 per week in rat. The class given is toxicity, organism-based, SD. The settings on record: in vivo. More on the design: dose 0.6 mg.Kg-1, dosed compound id 2.46809e+06, dosed compound name Idarubicin, dose level Intermediate, gender Mixed, regimen Once per week, route intravenous, sampling time 13 Week, study doses 0/0.3/0.6/1 mg.Kg-1.

The nature of data set [4]: Increase in serum total cholesterol level following intravenous idarubicin at 0.6 mg.Kg-1 per week in rat. To be noted: in vivo. The arrangement: dose 0.6 mg.Kg-1, dosed compound id 2.46809e+06, dosed compound name Idarubicin, dose level Intermediate, gender Mixed, regimen Once per week, route intravenous, sampling time 8-22 Week, study doses 0/0.3/0.6/1 mg.Kg-1. It counts as toxicity, organism-based, SD.

Data set [5] is described as follows: Increase in serum total cholesterol level following intravenous idarubicin at 0.3 mg.Kg-1 per week in rat. It counts as toxicity, organism-based, SD. The arrangement: dose 0.3 mg.Kg-1, dosed compound id 2.46809e+06, dosed compound name Idarubicin, dose level Low, gender Mixed, regimen Once per week, route intravenous, sampling time 8-22 Week, study doses 0/0.3/0.6/1 mg.Kg-1. To be noted: in vivo.

Data set [6] is described as follows: Increase in serum phospholipid level following intravenous idarubicin at 0.3 mg.Kg-1 per week in rat. It counts as toxicity, organism-based, SD. More on the design: dose 0.3 mg.Kg-1, dosed compound id 2.46809e+06, dosed compound name Idarubicin, dose level Low, gender Mixed, regimen Once per week, route intravenous, sampling time 8-22 Week, study doses 0/0.3/0.6/1 mg.Kg-1. The settings on record: in vivo.

Data set [7] in a line: Decrease in albumin due to persistent proteinuria following intravenous idarubicin at 0.3 mg.Kg-1 per week in rat. The class given is toxicity, organism-based, SD, Serum. The arrangement: dose 0.3 mg.Kg-1, dosed compound id 2.46809e+06, dosed compound name Idarubicin, dose level Low, gender Mixed, regimen Once per week, route intravenous, sampling time 36 Week, study doses 0/0.3/0.6/1 mg.Kg-1. To be noted: in vivo.

Data set [8] can be described thus: Increase in serum phospholipid level following intravenous idarubicin at 0.6 mg.Kg-1 per week in rat. The class given is toxicity, organism-based, SD. More on the design: dose 0.6 mg.Kg-1, dosed compound id 2.46809e+06, dosed compound name Idarubicin, dose level Intermediate, gender Mixed, regimen Once per week, route intravenous, sampling time 8-22 Week, study doses 0/0.3/0.6/1 mg.Kg-1. The settings on record: in vivo.

Data set [9] can be described thus: Incidence of persistent proteinuria following intravenous idarubicin at 0.3 mg.Kg-1 per week in rat. It counts as toxicity, organism-based, SD. The arrangement: dose 0.3 mg.Kg-1, dosed compound id 2.46809e+06, dosed compound name Idarubicin, dose level Low, gender Mixed, regimen Once per week, route intravenous, sampling time 36 Week, study doses 0/0.3/0.6/1 mg.Kg-1. The settings on record: in vivo.

Data set [10] in a line: Incidence of persistent proteinuria following intravenous idarubicin at 0.6 mg.Kg-1 per week in rat. The class given is toxicity, organism-based, SD. More on the design: dose 0.6 mg.Kg-1, dosed compound id 2.46809e+06, dosed compound name Idarubicin, dose level Intermediate, gender Mixed, regimen Once per week, route intravenous, sampling time 36 Week, study doses 0/0.3/0.6/1 mg.Kg-1. To be noted: in vivo.

A short description of data set [11]: Terminal half-life of 4-dem-daunorubicin following intravenous 4-dem-daunorubicin at 1.0 mg.Kg-1 dose in dog. The class given is ADME, organism-based, Canis lupus familiaris. More on the design: dose 1 mg.Kg-1, dosed compound id 2.46809e+06, dosed compound name Idarubicin, route intravenous. The settings on record: Beagle, plasma.
A short description of data set [12]: Incidence of leukocyturia following intravenous idarubicin at 0.3 mg.Kg-1 per week in rat. It counts as toxicity, organism-based, SD. More on the design: dose 0.3 mg.Kg-1, dosed compound id 2.46809e+06, dosed compound name Idarubicin, dose level Low, gender Mixed, regimen Once per week, route intravenous, sampling time 36 Week, study doses 0/0.3/0.6/1 mg.Kg-1. The settings on record: in vivo.

A short description of data set [13]: (§1) Decrease in leukocytes observed following intravenous idarubicin at 0.6 mg.Kg-1 per week in rat. The settings on record: in vivo. It counts as toxicity, organism-based, SD, Blood. The arrangement: dosed compound id 2.46809e+06, dosed compound name Idarubicin, dose level Intermediate, gender Mixed, route intravenous, sampling time 8 Week, study doses 0/0.3/0.6/1 mg.Kg-1.

The nature of data set [14]: as §1. It counts as toxicity, organism-based, SD, Blood. The settings on record: in vivo. More on the design: dose 0.6 mg.Kg-1, dosed compound id 2.46809e+06, dosed compound name Idarubicin, dose level Intermediate, gender Mixed, regimen Once per week, route intravenous, sampling time 4 Week, study doses 0/0.3/0.6/1 mg.Kg-1.
Data set [15] in a line: Incidence of leukocyturia following intravenous idarubicin at 0.6 mg.Kg-1 per week in rat. It counts as toxicity, organism-based, SD. The arrangement: dose 0.6 mg.Kg-1, dosed compound id 2.46809e+06, dosed compound name Idarubicin, dose level Intermediate, gender Mixed, regimen Once per week, route intravenous, sampling time 36 Week, study doses 0/0.3/0.6/1 mg.Kg-1. To be noted: in vivo.

A short description of data set [16]: Decrease in albumin due to persistent proteinuria following intravenous idarubicin at 0.6 mg.Kg-1 per week in rat. The settings on record: in vivo. The class given is toxicity, organism-based, SD, Serum. More on the design: dose 0.6 mg.Kg-1, dosed compound id 2.46809e+06, dosed compound name Idarubicin, dose level Intermediate, gender Mixed, regimen Once per week, route intravenous, sampling time 36 Week, study doses 0/0.3/0.6/1 mg.Kg-1.

The nature of data set [17]: Volume of distribution of 4-dem-daunorubicin following intravenous 4-dem-daunorubicin at 1.0 mg.Kg-1 dose in dog. The class given is ADME, organism-based, Canis lupus familiaris. More on the design: dose 1 mg.Kg-1, dosed compound id 2.46809e+06, dosed compound name Idarubicin, route intravenous. To be noted: Beagle, plasma.
Data set [18] can be described thus: Plasma clearance of 4-dem-daunorubicin following intravenous 4-dem-daunorubicin at 1.0 mg.Kg-1 dose in dog. It counts as ADME, organism-based, Canis lupus familiaris. The arrangement: dose 1 mg.Kg-1, dosed compound id 2.46809e+06, dosed compound name Idarubicin, route intravenous. The settings on record: Beagle, read-out: Clp.
Data set [19] in a line: (§2) Decrease in leukocytes observed following intravenous idarubicin at 0.3 mg.Kg-1 per week in rat. It counts as toxicity, organism-based, SD, Blood. The arrangement: dosed compound id 2.46809e+06, dosed compound name Idarubicin, dose level Low, gender Mixed, route intravenous, sampling time 4 Week, study doses 0/0.3/0.6/1 mg.Kg-1. The settings on record: in vivo.
A short description of data set [20]: as §2. The class given is toxicity, organism-based, SD, Blood. More on the design: dose 0.3 mg.Kg-1, dosed compound id 2.46809e+06, dosed compound name Idarubicin, dose level Low, gender Mixed, regimen Once per week, route intravenous, sampling time 8 Week, study doses 0/0.3/0.6/1 mg.Kg-1. To be noted: in vivo.

As to `CC(=O)[C@]1(O)Cc2c(O)c3c(c(O)c2[C@@H](O[C@H]2C[C@H](N)[C@H](O)[C@H](C)O2)C1)C(=O)c1ccccc1C3=O` [IDARUBICIN], the TRIG_CHANGE result in [1] and in data set [2] was “OUTCOME = Increased” each time. The Mortality entry in [3] is “OUTCOME = Observed, N_AFFECTED = 12”. Besides, the CHOL_CHANGE entry in [4] and in data set [5] was “OUTCOME = Increased” throughout. For the same compound, the PHOSLPD_CHANGE entry in data set [6] and in data set [8] was “OUTCOME = Increased” each time. The ALB_CHANGE entry in data set [7] and in data set [16] was “OUTCOME = Decreased” throughout. The Incidence entry in [9], in data set [10], in data set [12] and in [15] was “OUTCOME = Observed” each time. The compound also displayed a half-life in data set [11] of 6 min. The WBC_CHANGE is on record as 55% in data set [13], 50% in data set [14], 35% in data set [19] and 35% in [20]. This compound also showed a volume of distribution (Vd) in data set [17] of 34.5 L/kg. Further, the clearance in data set [18] was determined as 711 mL/min.
